Experimental data taken from ChEMBL document CHEMBL4130458, “Oxidation of the Meroterpenoid (-)-Terreumol C from the Mushroom Tricholoma terreum: Discovery of Cytotoxic Analogues” (J Nat Prod, 2017).
Values after ≈ are worked out from the molar mass of the structure shown. Active and inactive are the calls of the source. The calls are words filed in the database; no cut-off is given here.

Assays:
MCF7 = assay: Antiproliferative activity against human MCF7 cells after 5 days by WST-1 assay; assay type: functional, cell-based; conditions: MCF7, 120 h
KB 3-1 = assay: Antiproliferative activity against human KB-3-1 cells after 5 days by WST-1 assay; assay type: functional, cell-based; conditions: KB 3-1, 120 h
L929 = assay: Antiproliferative activity against mouse L929 cells after 5 days by WST-1 assay; assay type: ADME, cell-based; conditions: L929, 120 h
[1] = Antiproliferative activity against human FS4-LTM cells after 24 hrs by WST-1 assay; assay type: ADME, cell-based
Staphylococcus aureus [2] = assay: Antimicrobial activity against methicillin-resistant Staphylococcus aureus isolate RKI 11-02670 after 18 hrs by serial dilution method; assay type: functional, organism-based; conditions: isolate RKI 11-02670, 18 h
Acinetobacter baumannii = assay: Antimicrobial activity against Acinetobacter baumannii DSM 30007 up to 100 uM after 18 hrs by serial dilution method; assay type: functional, organism-based
Staphylococcus aureus [3] = assay: Antimicrobial activity against methicillin-resistant Staphylococcus aureus ICB 25701 up to 100 uM after 18 hrs by serial dilution method; assay type: functional, organism-based
Staphylococcus aureus [4] = assay: Antimicrobial activity against methicillin-resistant Staphylococcus aureus up to 100 uM after 18 hrs by serial dilution method; assay type: functional, organism-based
Enterococcus faecium = assay: Antimicrobial activity against Enterococcus faecium DSM 20477 up to 100 uM after 18 hrs by serial dilution method; assay type: functional, organism-based
Candida albicans = assay: Antimicrobial activity against Candida albicans up to 100 uM after 18 hrs by serial dilution method; assay type: functional, organism-based
Staphylococcus aureus [5] = assay: Antimicrobial activity against methicillin-resistant Staphylococcus aureus DSM 11822 up to 100 uM after 18 hrs by serial dilution method; assay type: functional, organism-based
Staphylococcus aureus [6] = assay: Antimicrobial activity against methicillin-resistant Staphylococcus aureus isolate RKI 11-02670 up to 100 uM after 18 hrs by serial dilution method; assay type: functional, organism-based
Escherichia coli = assay: Antimicrobial activity against Escherichia coli DSM 1116 up to 100 uM after 18 hrs by serial dilution method; assay type: functional, organism-based
Pseudomonas aeruginosa = assay: Antimicrobial activity against Pseudomonas aeruginosa PA7 DSM 24068 up to 100 uM after 18 hrs by serial dilution method; assay type: functional, organism-based
Klebsiella pneumoniae = assay: Antimicrobial activity against Klebsiella pneumoniae DSM 11678 up to 100 uM after 18 hrs by serial dilution method; assay type: functional, organism-based
Staphylococcus aureus [7] = assay: Growth promoting activity against methicillin-resistant Staphylococcus aureus at 50 uM after 18 hrs by serial dilution method; assay type: organism-based; conditions: in vivo

Row | Compound | IC50 (MCF7) | IC50 (KB 3-1) | IC50 (L929) | IC50 [1] | EC50 (Staphylococcus aureus [2]) | Activity (Acinetobacter baumannii) | Activity (Staphylococcus aureus [3]) | Activity (Staphylococcus aureus [4]) | Activity (Enterococcus faecium) | Activity (Candida albicans) | Activity (Staphylococcus aureus [5]) | Activity (Staphylococcus aureus [6]) | Activity (Escherichia coli) | Activity (Pseudomonas aeruginosa) | Activity (Klebsiella pneumoniae) | Activity (Staphylococcus aureus [7]) | MIC (Staphylococcus aureus [2])
1 | COc1cc(O)c2c(c1O)C/C(CO)=C\CC[C@@]1(C)O[C@@H]1C2=O | 43 µM | 59 µM | 40 µM | 42 µM | 50 µM | – | – | – | – | – | – | – | – | – | – | – | –
2 | C=C1Cc2c(O)c(OC)cc(O)c2C(=O)[C@H]2O[C@]2(C)CC[C@H]1Br | 11 µM | 4.5 µM | 2.5 µM | 14 µM | – | inactive | inactive | inactive | inactive | inactive | inactive | inactive | inactive | inactive | inactive | – | –
3 | COc1cc(O)c2c(c1O)C[C@]1(C)O[C@@H]1CC[C@@]1(C)O[C@@H]1C2=O | 17 µM | 9 µM | 9.9 µM | 29 µM | – | inactive | inactive | inactive | inactive | inactive | inactive | inactive | inactive | inactive | inactive | > 25% | –
4 | COc1cc(O)c2c(c1O)C/C(C(OC(C)=O)OC(C)=O)=C\CC[C@@]1(C)O[C@@H]1C2=O | 5.6 µM | 5.6 µM | 2.7 µM | 2.5 µM | 54 µM | – | – | – | – | – | – | – | – | – | – | – | –
5 | COc1cc(O)c2c(c1O)C[C@]1(C)O[C@@](C)(CC[C@H]1O)[C@H](O)C2=O | 100 µM | 100 µM | > 100 µM | > 100 µM | – | inactive | inactive | inactive | inactive | inactive | inactive | inactive | inactive | inactive | inactive | – | –
6 | COC1=CC(=O)C2=C(C[C@]3(C)O[C@@H]3CC[C@@]3(C)O[C@@H]3C2=O)C1=O | 24 µM | 20 µM | 18 µM | 31 µM | – | inactive | inactive | inactive | inactive | inactive | inactive | inactive | inactive | inactive | inactive | – | –
7 | COc1cc(O)c2c(c1O)[C@@H](O)/C(C)=C\CC[C@@]1(C)O[C@@H]1C2=O | 6.2 µM | 4.1 µM | 4 µM | 29 µM | – | inactive | inactive | inactive | inactive | inactive | inactive | inactive | inactive | inactive | inactive | – | –
8 | COc1cc(O)c2c(c1O)C/C(C)=C\CC[C@@]1(C)O[C@@H]1C2=O | 15 µM | 10 µM | 9.7 µM | 28 µM | – | inactive | inactive | inactive | inactive | inactive | inactive | inactive | inactive | inactive | inactive | > 25% | –
9 | COC1=CC(=O)C2=C(C/C(C)=C\CC[C@@]3(C)O[C@@H]3C2=O)C1=O | 27 µM | 14 µM | 13 µM | 28 µM | 64 µM | – | – | – | – | – | – | – | – | – | – | – | –
10 | COc1cc(O)c2c(c1O)C/C(CBr)=C\CC[C@@]1(C)O[C@@H]1C2=O | 32 µM | 34 µM | 10 µM | 29 µM | 22 µM | – | – | – | – | – | – | – | – | – | – | – | 13 µg/mL (≈ 33.9 µM)
